# Reference: patent US20230086683A1, “PLATELET STORAGE METHODS AND COMPOSITIONS” (Platefuse, Inc., priority 2020, published 2023)
# Tested on: washed human platelet suspension
# Assay: Inhibition of collagen-induced platelet aggregation (Lumi-Aggregometer)
# Assay type: cell-based
# Details: washed human platelets, 37° C., 2 min preincubation, collagen 1-4 μg/ml, read out at 6 min after induction, read-out: IC50 (concentration at which 50% aggregation is reached), platelet aggregation inhibitors
# Procedure: Platelet shape change in washed platelets was monitored using an aggregometer and the decrease in light transmittance following addition of an agonist (Huzoor et al., 1993). For the purpose of this analysis, collagen was used as the agonist. Briefly, a washed human platelet suspension was incubated at 37° C. in a Lumi-Aggregometer (Chrono-Log Corporation) with stirring at 900 rpm, followed by the addition of dimethylsulfoxide (DMSO) as a control vehicle, or various compounds dissolved in DMSO. After incubating the samples with the respective compound for 2 minutes, platelet aggregation was induced by, adding collagen (1-4 μg/ml) and the relative aggregation value was read out at 6 min after the induction. A dose response for each compound was derived.
row,IC50 [µM],Structure (SMILES)
1,1.5,O=C(NNc1ccnc2c(C(F)(F)F)cccc12)c1ccc(Cl)c(Cl)c1 [UC-177618]
2,6.7,Cc1ccc(C(=O)NNc2ccnc3cc(Cl)ccc23)cc1 [UC-177634]
3,5.8,O=C(NNc1ccnc2c(C(F)(F)F)cccc12)c1cc2ccccc2[nH]1 [UC-177628]
4,2.3,Cc1ccc(C(=O)NNc2ccnc3c(C(F)(F)F)cccc23)cc1 [UC-177633]
5,4.3,O=C(NNc1ccnc2cc(C(F)(F)F)ccc12)c1cc2ccccc2[nH]1 [UC-177627]
6,10.1,O=C(NNc1ccnc2ccccc12)c1cc2ccccc2[nH]1 [UC-177626]
7,2.3,O=C(NNc1ccnc2cc(Cl)ccc12)c1cc2ccccc2[nH]1 [UC-177629]
8,1.4,O=C(NNc1ccnc2cc(Cl)ccc12)c1ccc(Cl)c(Cl)c1 [UC-177619]
9,16.2,O=C(NNc1ccnc2ccccc12)c1ccc(Cl)c(Cl)c1 [UC-177617]
